Experimental data reported in patent publication US20030203908A1, “Dihydrofolate reductase inhibitors” (priority 2000, published 2003).

Key:
[1] = molecular target: T1, A16V.S108T mutant (mut) of DHFR from Plasmodium falciparum (Plasmodium falciparum, UniProt A7UD81, A16V/S108T); assay: biochemical
T1 construct: The Dihydrofolate Reductase Domain of Plasmodium falciparum Thymidylate Synthase-Dihydrofolate Reductase; made in house
Method: (§1) For determination of the Ki values of a number of synthesized analogues, the assay reactions were initiated with affinity-purified enzyme (^˜0.005-0.01 U ml^−1), and the initial velocities in the presence of varying concentrations of inhibitors were analysed by non-linear least square fit using Kaleidagraph™ software.

[2] = test system: A16V.S108T mutant (mut) of DHFR from Plasmodium falciparum; assay: biochemical; conditions: resistance factor
Method: as §1

[3] = molecular target: T2, wild-type (wt) DHFR from Plasmodium falciparum (Plasmodium falciparum, UniProt P13922, N108S/R59C); assay: Inhibition of wild-type pfDHFR (spectrophotometric, Ki); type: biochemical; conditions: Ki(wt) nM;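 further: Affinity-purified enzyme, initial reaction rates measured across a range of inhibitor concentrations, Ki obtained by nonlinear least-squares fitting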
T2 construct: The Dihydrofolate Reductase Domain of Plasmodium falciparum Thymidylate Synthase-Dihydrofolate Reductase; made in house
T2 sequence (P13922 10-228 R59C/N108S): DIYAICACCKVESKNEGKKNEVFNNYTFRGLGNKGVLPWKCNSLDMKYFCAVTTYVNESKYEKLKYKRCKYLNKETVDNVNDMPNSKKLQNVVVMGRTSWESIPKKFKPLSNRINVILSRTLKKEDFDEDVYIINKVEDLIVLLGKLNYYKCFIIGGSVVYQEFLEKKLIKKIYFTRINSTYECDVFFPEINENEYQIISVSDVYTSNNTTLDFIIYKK
Method: as §1

[4] = test system: wild-type (TM4/8.2) strain of P. falciparum; assay: microbe, parasite or virus in culture; type: cell-based, Plasmodium falciparum; conditions: Plasmodium falciparum; wild-type strain TM4/8.2
Method: Mol. Biochem. Parasitol. […] Science, 1976, 193, 673-675]. In vitro antimalarial activity was determined by using [^3H]-hypoxanthine incorporation method [Desjardins, R. E.; Canfield, C. J.; Haynes, J. D.; Chulay, J. D. Quantitative assessment of antimalarial activity in vitro by a semiautomated microdilution technique. Antimicrob Agents Chemother. 1979, 16, 710-718]. The drugs were initially dissolved in DMSO and diluted with the culture media. Aliquots (25 μl) of drug solution of different concentrations was placed in 96-well plate together with 200 μl of 1.5% cell suspension of parasitized erythrocytes containing 1-2% parasitemia. Final concentration of DMSO was 0.1% where there was no effect on the parasite growth. The mixtures were incubated in a 3% CO2 incubator at 37° C. After 24 h of incubation, 25 μl (0.25 μCi) of [^3H]-hypoxanthine were added to each well. The mixtures were further incubated under the same condition for 18-24 h. DNA of parasites was harvested onto glass filter paper (Unifilter, Packard, USA). The filters were dried and liquid scintillation fluid was added for radioactivity measurement in a 6-probe liquid scintillation-counter (Packard, USA).

[5] = molecular target: T3, human DHFR (Homo sapiens, UniProt P00374); assay: Inhibition of human DHFR (I50-derived Ki); type: biochemical; conditions: Human Ki (I50)(nM), human DHFR;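 further: recombinant human DHFR expressed in E. coli and purified by methotrexate affinity chromatography, enzyme activity followed spectrophotometrically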
T3 construct: made in house; host or cells: E. coli M15
T3 sequence (P00374 1-187): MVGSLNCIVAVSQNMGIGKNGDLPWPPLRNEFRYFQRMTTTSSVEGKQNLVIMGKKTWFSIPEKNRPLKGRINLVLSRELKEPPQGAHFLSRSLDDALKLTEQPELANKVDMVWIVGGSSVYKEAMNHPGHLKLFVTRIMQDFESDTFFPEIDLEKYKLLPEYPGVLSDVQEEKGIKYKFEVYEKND
Method: (§2) Folic acid and NADPH, were purchased from Sigma. Dihydrofolate was prepared from folic acid dithionate reduction. Methotrexate (MTX) was from Lederle Laboratories. MTX sepharose CL-6B was prepared according to the protocol described by Dann. et al. IPTG came from Boehringer Manheim. The expression system used for recombinant human DHFR production, which includes the plasmid PB-E1/RB SII, SphI-HDHFR expressed in E. coli M15, was supplied by Santi, D. V (Department of Biochemistry and Biophysics and Department of Pharmaceutical Chemistry, University of California). Recombinant T. Cruzi DHFR-TS was produced using the system pET 11c with the insertion of the complete ORF of the gene tc-dhfrts. The resulting plasmid was called pET DT.
(§3) Human and T.cruzi DHFR were produced using inducible expression systems. For human DHFR, fresh overnight cultures of E. coli M15, transformed with the plasmid, pB-E1/RB SII, SphI-HDHFR, were grown in LB and 0.1 mg/ml ampicillin medium at 28° C. For T.cruzi DHFR-TS, cultures of E. coli, BL21 (DE3) transformed with the plasmid pETDT system were grown at 37° C. The same purification protocol was used for both systems. When OD600 was at 0.8, cells pellets were collected by centrifugation, suspended in 50 ml of LB medium, containing 0.1 mg/ml of ampicillin. 10 ml of this preinocule was added to 2 litres of LB medium. Cultures were shaken at 28° C. or 37° C. (for human and T. cruzi DHFR respectively) and induction with IPTG ImM was performed when OD600 reached 0.8. After IPTG induction, cells were grown overnight in a shaker at 28° C. or 5 hours at 28° C. or 37° C. (for human and T. cruzi DHFR respectively) and then harvested by centrifugation.
(§4) Cell pellets were suspended in sonication buffer (2× TES DHFR:TES 100 mM, 2-mercaptoethanol 150 mM, EDTA 2 mM pH=7) containing protease inhibitors.
(§5) Crude extract was circulated through the MTX-Sepharose column at 4° C. at a flow rate of 0.2 ml/min until the protein was bound to the resin. The column was washed with an excess of buffer B (KH2PO410 mM pH 7, KC1 1M). Protein was eluted at 0.2 min/ml with an elution buffer (100 mM TES, 10 mM DTT, 2 mM EDTA, DHF 8.5 mM), the elution profile was collected in 1 ml fractions using a Pharmacia LKB Frac 200 collector. Finally, the protein was desalted using molecular size exclusion chromatography in a Pharmacia G-25 column. Fractions containing DHFR activity were pooled and concentrated by ultrafiltration using centripreps Amicon.
(§6) The purity of the protein preparation was assessed by detection of a single band of the correct molecular weight stained with coomasie blue following a 12% SDS-PAGE. Protein concentration was determined by the method of Bradford using a BSA as a standard. DHFR activity was measured spectrophotometrically by monitoring the decrease in absorbance at 340 mm. […] One unit of enzyme, is defined as the amount of enzyme which produces 1 nmol of product per min using ε of 12300M^−1 at 340 nm.
(§7) Inhibition of dihydrofolate reductases by 1,2-dihydro-1,3,5 triazines was analysed with T. cruzi and human DHFR.
(§8) DHFR assays contained 30 mM dihydrofolate, 0.1 mM NADPH, 50 mM TES buffer pH 7, 75 mM 2-mercaptoethanol and specified amounts of inhibitors. The reaction was initiated by addition of 2.8 or 2.3 units of T. cruzi and human, respectively, and monitored at 340 nm.
(§9) Selective inhibition of dihydrofolate reductase by 1,2-dihydro-1,3,5-triazines was analysed with T. cruzi and human DHFR. DHFR assays contained 30 μM dihydrofolate, 0.1 mM NADPH, 50 mM TES buffer pH 7, 75 mM β-mercaptoethanol and specified amounts of inhibitors. The reaction was initiated by addition of 2.8 or 2.3 units of T. cruzi and human enzyme, respectively, and monitored at 340 nm. […] KiI 50=[I]0.5/((1+[S])/Km)

[6] = molecular target: human DHFR; assay: Inhibition of human DHFR (I50-derived Ki); type: biochemical;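 further: recombinant human DHFR expressed in E. coli and purified by methotrexate affinity chromatography, enzyme activity followed spectrophotometrically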
Method: as §2, §3, §4, §5, §6, §7, §8, §9

[7] = molecular target: T4, DHFR-TS from Trypanosoma cruzi (Trypanosoma cruzi, UniProt Q27793); assay: Inhibition of T. cruzi DHFR-TS (I50-derived Ki);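 on all read-outs here: enzymes were recombinant T. cruzi DHFR-TS and human DHFR, both expressed in E. coli and purified on a methotrexate affinity column, with dihydrofolate and NADPH as substrates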; type: biochemical; conditions: for Selectivity: human Ki / T. cruzi Ki
T4 construct: pET 11c with the insertion of the complete ORF of the gene tc-dhfrts; made in house; host or cells: E. coli BL21 (DE3)
T4 sequence (Q27793 whole entry): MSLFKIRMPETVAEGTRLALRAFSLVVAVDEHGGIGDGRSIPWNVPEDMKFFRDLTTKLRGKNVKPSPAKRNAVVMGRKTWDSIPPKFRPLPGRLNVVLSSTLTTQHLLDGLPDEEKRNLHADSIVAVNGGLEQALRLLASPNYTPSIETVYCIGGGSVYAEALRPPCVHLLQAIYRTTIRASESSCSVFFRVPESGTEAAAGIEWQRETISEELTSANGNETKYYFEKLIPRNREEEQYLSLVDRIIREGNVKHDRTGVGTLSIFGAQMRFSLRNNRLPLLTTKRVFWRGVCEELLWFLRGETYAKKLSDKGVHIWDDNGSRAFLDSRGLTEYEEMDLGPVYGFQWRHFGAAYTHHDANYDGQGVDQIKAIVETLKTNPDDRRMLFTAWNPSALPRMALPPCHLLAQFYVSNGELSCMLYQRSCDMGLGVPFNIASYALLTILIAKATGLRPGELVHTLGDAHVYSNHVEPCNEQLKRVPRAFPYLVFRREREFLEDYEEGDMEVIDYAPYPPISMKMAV
Method: DHFR activity was measured spectrophotometrically by monitoring the decrease in absorbance at 340 mm.
as §7, §8
Selective inhibition of dihydrofolate reductase by 1,2-dihydro-1,3,5-triazines was analysed with T. cruzi and human DHFR. DHFR assays contained 30 μM dihydrofolate, 0.1 mM NADPH, 50 mM TES buffer pH 7, 75 mM β-mercaptoethanol and specified amounts of inhibitors. The reaction was initiated by addition of 2.8 or 2.3 units of T. cruzi and human enzyme, respectively, and monitored at 340 nm.
KiI 50=[I]0.5/((1+[S])/Km)

T1 sequence (A7UD81 1-231 A16V/S108T): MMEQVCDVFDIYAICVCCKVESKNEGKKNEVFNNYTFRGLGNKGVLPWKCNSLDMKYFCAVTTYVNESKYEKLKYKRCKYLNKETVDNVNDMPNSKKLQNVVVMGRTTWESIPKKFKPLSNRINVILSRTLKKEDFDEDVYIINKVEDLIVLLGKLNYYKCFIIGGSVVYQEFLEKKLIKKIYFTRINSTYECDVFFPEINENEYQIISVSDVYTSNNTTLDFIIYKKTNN

Row | Structure (SMILES) | Ki [1] [nM] | Ki(mut)/Ki(wt) [2] | Ki [3] [nM] | IC50 [4] [nM] | Ki [5] [nM] | Ki (human)/Ki (P. falc. mut) [6] | Ki (human)/Ki (P. falc. wt) [6] | Ki (human)/Ki (T. cruzi) [6] | Ki [7] [nM] | Selectivity [7]
1 | NC1=NC(c2ccc(O)cc2)N(c2cccc(Cl)c2)C(N)=N1 (centres unmarked) [(Ib) R2=4-hydroxyphenyl] | 57.7 ± 7.5 | 1.0 | 59.1 ± 1 | 3070 | 56 | 0.97 | 0.95 | 1.17 |  | 
2 | NC1=NC(c2ccc(F)cc2)N(c2ccc(Cl)cc2)C(N)=N1 (centres unmarked) [(Ia) R2=p-fluorophenyl] | 130 ± 17 | 15.1 | 8.6 ± 1.4 | 359 | 10600 | 81 | 1227 | 10.4 | 1010 | 10
3 | CCOc1ccc(C2N=C(N)N=C(N)N2c2ccc(Cl)cc2)cc1 (centres unmarked) [(Ia) R2=p-ethoxyphenyl, 1-p-chlorophenyl-2-p-ethoxyphenyl-4-6-diamino-1,2-dihydro-1,3,5-triazine] | 36 ± 6 | 24.3 | 1.5 ± 0.2 | 181 | 1730 | 48 | 1153 | 24.7 | 70 | 25
4 | NC1=NCN(c2ccc(OCc3ccccc3)cc2)C(N)=N1 [R2=H, X=BnO, Y=H] | 28.6 ± 2.2 | 1.3 | 22.4 ± 1.3 | 690 | 44 | 1.54 | 1.96 | 4.44 | 10 | 4.4
5 | NC1=NCN(c2cccc(Cc3ccccc3)c2)C(N)=N1 [R2=H, X=H, Y=Bn] | 6 ± 0.1 | 0.6 | 9.4 ± 0.4 | 403 | 66 | 11 | 7.0 | 2.27 | 29 | 2.3
6 | NC1=NC(c2cccc(O)c2)N(c2ccc(Cl)cc2)C(N)=N1 (centres unmarked) [(Ia) R2=m-hydroxyphenyl, 1-p-chlorophenyl-2-m-hydroxyphenyl-4,6-diamino-1,2-dihydro-1,3,5-triazine] | 123 ± 13 | 20.6 | 6 ± 0.4 | 48 | 1680 | 13.7 | 280 | 56 |  | 
7 | COc1ccc(C2N=C(N)N=C(N)N2c2ccc(Cl)cc2)cc1 (centres unmarked) [(Ia) R2=p-methoxyphenyl, 1-p-chlorophenyl-2-p-methoxyphenyl-4,6-diamino-1,2-dihydro-1,3,5-triazine] | 129 ± 25 | 11.3 | 11.4 ± 1.5 | 424 | 5530 | 42.9 | 485 | 212 | 26 | 212
8 | CCCCOc1ccc(C2N=C(N)N=C(N)N2c2ccc(OCc3ccccc3)cc2)cc1 (centres unmarked) [1-p-benzyloxyphenyl-2-p-n-butoxyphenyl-4,6-diamino-1,2-dihydro-1,3,5-triazine] | 6.6 ± 0.6 | 8.2 | 0.8 ± 0.1 | 384 | 203 | 31 | 253 | 4.1 | 49 | 4.1
9 | CC(C)c1ccc(C2N=C(N)N=C(N)N2c2ccc(Cl)cc2)cc1 (centres unmarked) [(Ia) R2=p-isopropylphenyl, 1-p-chlorophenyl-2-p-isopropylphenyl-4,6-diamino-1,2-dihydro-1,3,5-triazine] | 15.2 ± 1.6 | 8.0 | 1.9 ± 0.6 | 973 | 10000 | 661 | 5289 | 167 | 60 | 167
